From PubChem BioAssay (NCI)
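Following 48 hours of exposure in 96-well plates, responses at five concentrations were used to interpolate endpoints linearly. TGI: concentration producing complete growth inhibition.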

Assays:
Assay in all cases: DTP human tumour cell line panel, 48 h
786-0 renal = system: 786-0 renal
A498 renal = system: A498 renal
A549 NSCLC = system: A549 NSCLC
ACHN renal = system: ACHN renal
BT-549 breast = system: BT-549 breast
CAKI-1 renal = system: CAKI-1 renal
CCRF-CEM leukemia = system: CCRF-CEM leukemia
COLO 205 colon = system: COLO 205 colon
DU-145 prostate = system: DU-145 prostate
EKVX NSCLC = system: EKVX NSCLC
HCC-2998 colon = system: HCC-2998 colon
HCT-116 colon = system: HCT-116 colon
HCT-15 colon = system: HCT-15 colon
HL-60(TB) leukemia = system: HL-60(TB) leukemia
HOP-62 NSCLC = system: HOP-62 NSCLC
HOP-92 NSCLC = system: HOP-92 NSCLC
HS 578T breast = system: HS 578T breast
HT29 colon = system: HT29 colon
IGROV1 ovarian = system: IGROV1 ovarian
K-562 leukemia = system: K-562 leukemia
KM12 colon = system: KM12 colon
LOX IMVI melanoma = system: LOX IMVI melanoma
M14 melanoma = system: M14 melanoma
MALME-3M melanoma = system: MALME-3M melanoma
MCF7 breast = system: MCF7 breast
MDA-MB-435 = system: MDA-MB-435
MDA-N = system: MDA-N
MOLT-4 leukemia = system: MOLT-4 leukemia
NCI-H226 lung = system: NCI-H226 lung
NCI-H23 lung = system: NCI-H23 lung
NCI-H460 lung = system: NCI-H460 lung
NCI-H522 lung = system: NCI-H522 lung
NCI/ADR-RES ovarian = system: NCI/ADR-RES ovarian
OVCAR-3 ovarian = system: OVCAR-3 ovarian
OVCAR-4 ovarian = system: OVCAR-4 ovarian
OVCAR-5 ovarian = system: OVCAR-5 ovarian
OVCAR-8 ovarian = system: OVCAR-8 ovarian
PC-3 prostate = system: PC-3 prostate
RPMI-8226 leukemia = system: RPMI-8226 leukemia
RXF 393 renal = system: RXF 393 renal
SF-268 CNS = system: SF-268 CNS
SF-295 CNS = system: SF-295 CNS
SF-539 CNS = system: SF-539 CNS
SK-MEL-2 melanoma = system: SK-MEL-2 melanoma
SK-MEL-28 melanoma = system: SK-MEL-28 melanoma
SK-MEL-5 melanoma = system: SK-MEL-5 melanoma
SK-OV-3 ovarian = system: SK-OV-3 ovarian
SN12C renal = system: SN12C renal
SNB-19 CNS = system: SNB-19 CNS
SNB-75 CNS = system: SNB-75 CNS
SR leukemia = system: SR leukemia
SW-620 colon = system: SW-620 colon
T-47D breast = system: T-47D breast
UACC-257 melanoma = system: UACC-257 melanoma
UACC-62 melanoma = system: UACC-62 melanoma
UO-31 renal = system: UO-31 renal
MDA-MB-231 breast = system: MDA-MB-231 breast
TK-10 renal = system: TK-10 renal
U251 CNS = system: U251 CNS

Measured: TGI

CCOc1cc(NC(C)=O)ccc1C(=O)NN1C(=O)/C(=C/c2ccco2)N=C1c1ccccc1
> 100 µM: 786-0 renal | A498 renal | A549 NSCLC | ACHN renal | BT-549 breast | CAKI-1 renal | CCRF-CEM leukemia | COLO 205 colon | DU-145 prostate | EKVX NSCLC | HCC-2998 colon | HCT-116 colon | HCT-15 colon | HL-60(TB) leukemia | HOP-62 NSCLC | HOP-92 NSCLC | HS 578T breast | HT29 colon | IGROV1 ovarian | K-562 leukemia | KM12 colon | LOX IMVI melanoma | M14 melanoma | MALME-3M melanoma | MCF7 breast | MDA-MB-435 | MDA-N | MOLT-4 leukemia | NCI-H226 lung | NCI-H23 lung | NCI-H460 lung | NCI-H522 lung | NCI/ADR-RES ovarian | OVCAR-3 ovarian | OVCAR-4 ovarian | OVCAR-5 ovarian | OVCAR-8 ovarian | PC-3 prostate | RPMI-8226 leukemia | RXF 393 renal | SF-268 CNS | SF-295 CNS | SF-539 CNS | SK-MEL-2 melanoma | SK-MEL-28 melanoma | SK-MEL-5 melanoma | SK-OV-3 ovarian | SN12C renal | SNB-19 CNS | SNB-75 CNS | SR leukemia | SW-620 colon | T-47D breast | UACC-257 melanoma | UACC-62 melanoma | UO-31 renal

O=C(Nc1ccn(C2CC(O)C(CO)O2)c(=O)n1)c1ccccc1 (centres undefined)
> 100 µM: 786-0 renal | A498 renal | A549 NSCLC | ACHN renal | BT-549 breast | CAKI-1 renal | CCRF-CEM leukemia | COLO 205 colon | DU-145 prostate | EKVX NSCLC | HCT-116 colon | HCT-15 colon | HL-60(TB) leukemia | HOP-62 NSCLC | HS 578T breast | HT29 colon | IGROV1 ovarian | K-562 leukemia | KM12 colon | LOX IMVI melanoma | M14 melanoma | MCF7 breast | MDA-MB-231 breast | MDA-MB-435 | MDA-N | MOLT-4 leukemia | NCI-H226 lung | NCI-H23 lung | NCI-H460 lung | NCI-H522 lung | NCI/ADR-RES ovarian | OVCAR-3 ovarian | OVCAR-4 ovarian | OVCAR-5 ovarian | OVCAR-8 ovarian | PC-3 prostate | RPMI-8226 leukemia | SF-268 CNS | SF-295 CNS | SF-539 CNS | SK-MEL-2 melanoma | SK-MEL-28 melanoma | SK-MEL-5 melanoma | SK-OV-3 ovarian | SN12C renal | SNB-19 CNS | SNB-75 CNS | SW-620 colon | T-47D breast | TK-10 renal | U251 CNS | UACC-257 melanoma | UACC-62 melanoma
